What all share (format): biochemical
Experiment [1] deals with T1, Ret-1 (Homo sapiens, UniProt P07949).
T1 construct: Kinases are expressed as either kinase domains or full length constructs; made in house
The experiment can be described thus: Kinase inhibition assay (33P transfer), Ret. As to conditions: Table 6, Ret-1 kinase inhibition class.

Experiment [2] has as its target T2, EGFR (Homo sapiens, UniProt P00533).
T2 construct: Kinases are expressed as either kinase domains or full length constructs; made in house
In words: Kinase inhibition assay (33P transfer), EGFR. The settings on record: Table 2, kinase inhibition class; read-out: EGFR-1. The essentials: (§1)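 IC50: inhibitor concentration lowering 33P incorporation into immobilised substrate by 50%. Label transferred from ATP to poly(Glu,Tyr) 4:1 or poly(Arg,Ser) 3:1 is measured after a 0.5% phosphoric acid wash by liquid scintillation.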

Experiment [3] addresses T3, EPHB4 (Homo sapiens, UniProt P54760).
T3 construct: Kinases are expressed as either kinase domains or full length constructs; made in house
T3 sequence (P54760 16-987): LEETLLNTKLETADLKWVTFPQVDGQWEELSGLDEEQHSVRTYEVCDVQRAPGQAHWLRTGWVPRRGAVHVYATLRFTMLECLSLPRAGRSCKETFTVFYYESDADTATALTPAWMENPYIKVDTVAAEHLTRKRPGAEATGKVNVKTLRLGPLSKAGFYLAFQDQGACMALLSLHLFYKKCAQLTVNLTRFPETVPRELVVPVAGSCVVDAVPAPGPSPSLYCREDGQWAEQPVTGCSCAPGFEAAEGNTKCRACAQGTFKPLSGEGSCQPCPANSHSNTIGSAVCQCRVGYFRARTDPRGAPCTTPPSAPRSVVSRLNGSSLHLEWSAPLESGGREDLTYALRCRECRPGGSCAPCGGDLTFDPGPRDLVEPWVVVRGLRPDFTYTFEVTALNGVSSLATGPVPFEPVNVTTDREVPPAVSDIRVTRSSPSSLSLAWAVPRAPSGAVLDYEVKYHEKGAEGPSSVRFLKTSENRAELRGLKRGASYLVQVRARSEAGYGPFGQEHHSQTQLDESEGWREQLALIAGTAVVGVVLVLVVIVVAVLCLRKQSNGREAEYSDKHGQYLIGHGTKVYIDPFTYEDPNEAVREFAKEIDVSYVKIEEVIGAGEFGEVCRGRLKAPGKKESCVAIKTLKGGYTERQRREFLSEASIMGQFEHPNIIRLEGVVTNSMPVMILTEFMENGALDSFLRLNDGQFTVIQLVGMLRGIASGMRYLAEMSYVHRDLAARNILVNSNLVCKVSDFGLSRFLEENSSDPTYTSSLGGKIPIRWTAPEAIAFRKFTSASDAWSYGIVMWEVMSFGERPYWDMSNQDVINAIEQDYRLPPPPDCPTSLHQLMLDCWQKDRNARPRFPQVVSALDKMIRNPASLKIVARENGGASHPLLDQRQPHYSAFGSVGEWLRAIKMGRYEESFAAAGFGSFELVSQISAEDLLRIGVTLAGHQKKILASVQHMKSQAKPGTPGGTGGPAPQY
The experiment can be described thus: Kinase inhibition assay (33P transfer), EPHB4. The settings on record: read-out: EPHB4-1.

The target in experiment [4] is T4, Itk (Homo sapiens, UniProt Q08881).
T4 construct: Kinases are expressed as either kinase domains or full length constructs; made in house
T4 sequence (Q08881 1-620): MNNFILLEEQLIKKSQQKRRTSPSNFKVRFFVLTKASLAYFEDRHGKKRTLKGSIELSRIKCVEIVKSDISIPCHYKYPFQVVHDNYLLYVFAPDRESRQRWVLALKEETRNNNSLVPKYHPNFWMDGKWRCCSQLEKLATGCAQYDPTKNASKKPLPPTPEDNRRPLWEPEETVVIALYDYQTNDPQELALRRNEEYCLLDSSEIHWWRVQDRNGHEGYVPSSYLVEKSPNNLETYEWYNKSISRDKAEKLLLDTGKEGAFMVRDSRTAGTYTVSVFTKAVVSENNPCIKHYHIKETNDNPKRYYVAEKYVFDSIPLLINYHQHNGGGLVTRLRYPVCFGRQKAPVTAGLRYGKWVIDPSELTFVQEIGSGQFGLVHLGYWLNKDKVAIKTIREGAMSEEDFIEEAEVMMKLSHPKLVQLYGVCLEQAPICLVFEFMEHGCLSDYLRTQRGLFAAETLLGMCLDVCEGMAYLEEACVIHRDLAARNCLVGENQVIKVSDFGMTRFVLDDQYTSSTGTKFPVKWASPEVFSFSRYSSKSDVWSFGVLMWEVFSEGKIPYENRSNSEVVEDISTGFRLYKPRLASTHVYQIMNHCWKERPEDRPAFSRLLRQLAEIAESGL
The experiment can be described thus: Kinase inhibition assay (33P transfer), Itk. The settings on record: Table 3; read-out: Itk-1. The method, boiled down: as §1

Experiment [5] deals with T5, Tek (Homo sapiens, UniProt Q02763).
T5 construct: Kinases are expressed as either kinase domains or full length constructs; made in house
T5 sequence (Q02763 23-1124, species assumed): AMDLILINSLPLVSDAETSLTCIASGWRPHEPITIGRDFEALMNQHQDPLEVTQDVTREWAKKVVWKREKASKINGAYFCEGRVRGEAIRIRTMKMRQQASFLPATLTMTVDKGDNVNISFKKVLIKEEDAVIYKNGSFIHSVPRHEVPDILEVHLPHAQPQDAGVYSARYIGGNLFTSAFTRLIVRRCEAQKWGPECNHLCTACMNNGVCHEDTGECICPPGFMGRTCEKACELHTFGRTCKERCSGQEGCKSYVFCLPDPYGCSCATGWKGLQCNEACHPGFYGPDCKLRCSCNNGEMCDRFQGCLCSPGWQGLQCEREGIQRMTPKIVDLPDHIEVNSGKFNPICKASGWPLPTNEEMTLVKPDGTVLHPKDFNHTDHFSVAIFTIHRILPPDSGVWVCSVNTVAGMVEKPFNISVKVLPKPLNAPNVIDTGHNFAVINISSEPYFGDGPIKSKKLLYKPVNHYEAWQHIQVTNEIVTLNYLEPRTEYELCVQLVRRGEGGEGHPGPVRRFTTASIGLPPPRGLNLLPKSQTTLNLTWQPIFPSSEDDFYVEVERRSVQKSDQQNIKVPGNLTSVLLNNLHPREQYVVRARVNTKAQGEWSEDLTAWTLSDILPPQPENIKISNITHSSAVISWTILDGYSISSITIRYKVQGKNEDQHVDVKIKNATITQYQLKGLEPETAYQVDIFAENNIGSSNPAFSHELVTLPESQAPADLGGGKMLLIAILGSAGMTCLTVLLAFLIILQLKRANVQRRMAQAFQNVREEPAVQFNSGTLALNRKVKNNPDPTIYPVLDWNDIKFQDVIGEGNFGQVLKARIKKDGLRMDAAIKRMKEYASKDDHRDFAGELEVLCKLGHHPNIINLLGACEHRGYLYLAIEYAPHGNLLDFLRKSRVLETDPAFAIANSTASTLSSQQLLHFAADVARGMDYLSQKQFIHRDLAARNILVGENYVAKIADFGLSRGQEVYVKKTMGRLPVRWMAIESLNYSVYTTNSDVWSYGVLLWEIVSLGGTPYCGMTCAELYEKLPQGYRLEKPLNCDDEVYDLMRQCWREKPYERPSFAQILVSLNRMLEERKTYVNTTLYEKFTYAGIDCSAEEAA
In words: Kinase inhibition assay (33P transfer), Tek. The settings on record: read-out: Tek-1. The method, boiled down:
as §1

Experiment [6] addresses T6, Src (Homo sapiens, UniProt P12931).
T6 construct: Kinases are expressed as either kinase domains or full length constructs; made in house
In words: Kinase inhibition assay (33P transfer), Src. The settings on record: Table 6, Src-1 kinase inhibition class. The essentials: as §1

Experiment [7] concerns the target T7, Fyn (Homo sapiens, UniProt P06241).
T7 construct: Kinases are expressed as either kinase domains or full length constructs; made in house
In words: Kinase inhibition assay (33P transfer), Fyn. The settings on record: read-out: Fyn-1. The essentials:
as §1

Experiment [8] deals with T8, ErbB4 (Homo sapiens, UniProt Q15303).
T8 construct: Kinases are expressed as either kinase domains or full length constructs; made in house
T8 sequence (Q15303 26-1308, species assumed): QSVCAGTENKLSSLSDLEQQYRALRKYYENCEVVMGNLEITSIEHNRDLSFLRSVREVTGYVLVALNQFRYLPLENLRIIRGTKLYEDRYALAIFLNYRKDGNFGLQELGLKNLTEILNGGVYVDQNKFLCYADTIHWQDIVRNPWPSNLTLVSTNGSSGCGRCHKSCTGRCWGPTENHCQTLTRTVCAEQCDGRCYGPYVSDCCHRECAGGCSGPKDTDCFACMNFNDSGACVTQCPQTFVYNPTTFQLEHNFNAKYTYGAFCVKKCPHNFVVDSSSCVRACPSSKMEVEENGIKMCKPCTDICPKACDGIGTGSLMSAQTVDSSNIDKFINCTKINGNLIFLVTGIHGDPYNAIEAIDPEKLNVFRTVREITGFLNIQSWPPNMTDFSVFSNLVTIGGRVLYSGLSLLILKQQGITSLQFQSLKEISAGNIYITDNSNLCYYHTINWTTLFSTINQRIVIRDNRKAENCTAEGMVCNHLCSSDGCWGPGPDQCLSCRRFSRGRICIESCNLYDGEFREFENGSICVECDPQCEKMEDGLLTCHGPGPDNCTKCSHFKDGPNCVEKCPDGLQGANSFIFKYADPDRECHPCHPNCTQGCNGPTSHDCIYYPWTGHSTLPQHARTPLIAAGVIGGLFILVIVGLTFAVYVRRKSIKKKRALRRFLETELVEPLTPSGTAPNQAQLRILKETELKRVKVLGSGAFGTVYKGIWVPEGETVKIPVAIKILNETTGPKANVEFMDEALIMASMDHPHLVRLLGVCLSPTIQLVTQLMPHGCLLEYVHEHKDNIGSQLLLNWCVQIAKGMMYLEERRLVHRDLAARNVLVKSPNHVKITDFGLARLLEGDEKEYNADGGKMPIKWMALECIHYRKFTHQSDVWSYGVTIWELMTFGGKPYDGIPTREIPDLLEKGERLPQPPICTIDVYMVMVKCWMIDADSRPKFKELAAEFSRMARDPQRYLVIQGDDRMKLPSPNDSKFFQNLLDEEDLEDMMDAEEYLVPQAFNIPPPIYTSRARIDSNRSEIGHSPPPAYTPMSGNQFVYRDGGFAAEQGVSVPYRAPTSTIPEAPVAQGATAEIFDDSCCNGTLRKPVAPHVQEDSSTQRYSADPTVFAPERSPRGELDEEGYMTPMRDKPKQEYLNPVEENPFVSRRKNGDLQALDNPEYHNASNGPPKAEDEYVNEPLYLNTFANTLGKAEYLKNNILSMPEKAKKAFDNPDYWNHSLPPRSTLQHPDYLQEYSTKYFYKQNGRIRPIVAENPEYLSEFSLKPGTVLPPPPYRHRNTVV
In words: Kinase inhibition assay (33P transfer), ErbB4. The settings on record: read-out: ErbB4-1.

pIC50: −log10 of the molar value.

T6 sequence (P12931 whole entry, species assumed, the tested form may be a part): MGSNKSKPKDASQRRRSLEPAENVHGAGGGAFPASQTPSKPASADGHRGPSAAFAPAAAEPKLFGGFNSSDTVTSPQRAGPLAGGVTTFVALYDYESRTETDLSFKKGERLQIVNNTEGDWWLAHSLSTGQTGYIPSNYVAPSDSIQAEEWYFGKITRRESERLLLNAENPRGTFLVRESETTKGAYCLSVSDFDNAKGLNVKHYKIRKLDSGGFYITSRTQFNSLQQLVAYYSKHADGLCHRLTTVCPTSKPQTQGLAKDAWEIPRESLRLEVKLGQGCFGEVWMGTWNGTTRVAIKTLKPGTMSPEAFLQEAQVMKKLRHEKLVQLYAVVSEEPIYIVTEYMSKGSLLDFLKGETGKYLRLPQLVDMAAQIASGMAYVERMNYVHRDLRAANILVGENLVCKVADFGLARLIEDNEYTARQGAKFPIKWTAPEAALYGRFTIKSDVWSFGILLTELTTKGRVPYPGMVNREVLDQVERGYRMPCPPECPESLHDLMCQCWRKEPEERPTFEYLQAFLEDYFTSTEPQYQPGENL
T7 sequence (P06241 whole entry, species assumed, the tested form may be a part): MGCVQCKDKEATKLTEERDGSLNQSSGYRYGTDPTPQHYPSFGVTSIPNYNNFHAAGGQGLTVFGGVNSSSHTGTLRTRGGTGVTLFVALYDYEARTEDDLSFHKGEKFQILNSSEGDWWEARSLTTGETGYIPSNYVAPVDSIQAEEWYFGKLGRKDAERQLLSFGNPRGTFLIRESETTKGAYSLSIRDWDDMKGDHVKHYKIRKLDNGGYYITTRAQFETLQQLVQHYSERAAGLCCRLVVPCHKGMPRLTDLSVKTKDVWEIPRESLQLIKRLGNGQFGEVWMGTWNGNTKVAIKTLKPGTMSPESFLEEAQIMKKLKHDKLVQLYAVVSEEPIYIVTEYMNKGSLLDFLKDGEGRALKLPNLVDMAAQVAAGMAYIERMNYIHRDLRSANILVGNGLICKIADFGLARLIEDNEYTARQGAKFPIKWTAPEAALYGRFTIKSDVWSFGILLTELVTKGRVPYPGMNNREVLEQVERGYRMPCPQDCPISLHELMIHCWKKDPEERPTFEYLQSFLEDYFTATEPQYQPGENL
T1 sequence (P07949 29-1114): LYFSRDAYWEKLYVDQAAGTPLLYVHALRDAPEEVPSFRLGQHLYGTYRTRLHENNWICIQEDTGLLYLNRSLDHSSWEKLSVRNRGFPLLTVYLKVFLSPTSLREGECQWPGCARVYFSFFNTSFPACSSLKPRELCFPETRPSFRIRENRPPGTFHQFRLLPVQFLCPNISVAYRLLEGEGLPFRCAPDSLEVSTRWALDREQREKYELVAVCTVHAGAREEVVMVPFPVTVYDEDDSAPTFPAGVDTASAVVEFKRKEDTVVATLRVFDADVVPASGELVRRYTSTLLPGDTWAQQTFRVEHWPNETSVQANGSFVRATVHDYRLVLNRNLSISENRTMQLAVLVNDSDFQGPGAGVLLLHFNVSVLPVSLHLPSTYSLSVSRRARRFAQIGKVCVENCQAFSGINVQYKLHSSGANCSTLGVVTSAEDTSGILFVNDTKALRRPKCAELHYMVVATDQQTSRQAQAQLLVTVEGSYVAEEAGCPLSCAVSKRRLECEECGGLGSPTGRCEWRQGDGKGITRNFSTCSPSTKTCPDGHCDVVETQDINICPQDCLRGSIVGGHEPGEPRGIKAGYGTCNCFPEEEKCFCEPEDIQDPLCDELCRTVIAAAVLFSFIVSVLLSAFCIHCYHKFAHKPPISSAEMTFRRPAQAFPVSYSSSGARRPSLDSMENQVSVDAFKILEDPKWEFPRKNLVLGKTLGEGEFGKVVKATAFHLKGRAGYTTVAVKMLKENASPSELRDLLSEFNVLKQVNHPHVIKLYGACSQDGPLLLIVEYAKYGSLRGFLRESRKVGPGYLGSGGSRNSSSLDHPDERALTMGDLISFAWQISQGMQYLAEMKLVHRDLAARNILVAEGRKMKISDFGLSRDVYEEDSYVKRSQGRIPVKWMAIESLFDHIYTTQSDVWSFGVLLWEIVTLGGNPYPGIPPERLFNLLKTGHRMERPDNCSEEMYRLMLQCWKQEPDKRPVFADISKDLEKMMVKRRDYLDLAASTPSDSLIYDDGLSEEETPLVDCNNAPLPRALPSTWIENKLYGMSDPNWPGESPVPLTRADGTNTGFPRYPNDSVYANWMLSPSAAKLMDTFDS

Take `c1coc(-c2cc(Nc3ncnc(Nc4ccc(N5CCOCC5)cc4)n3)[nH]n2)c1` [Compound 340]: the pIC50 in experiment [1] was more than 6.00; in experiment [2] it was 5.06 to 5.23; in experiment [3], 5.23 to 6.00; in experiment [4], less than 4.95; in experiment [5], 4.95 to 5.06; in experiment [6], less than 4.95. For the same molecule, the pIC50 in experiment [7] and in experiment [8] was 5.23 to 6.00 in each case.

Consider `NC(=O)c1cccc(Nc2ncnc(Nc3cc(-c4ccco4)n[nH]3)n2)c1` [Compound 342], for which the pIC50 in experiment [1] is more than 5.96; in experiment [2], more than 5.96; in experiment [3], 5.18 to 5.96; in experiment [4] it was 5.18 to 5.96; in experiment [5] it was less than 4.91; in experiment [6] it was less than 4.91. Further, the pIC50 in experiment [7] and in experiment [8] was 5.18 to 5.96 each time.

As for `COc1cc(Nc2ncnc(N3CCCc4ccccc43)n2)cc(OC)c1OC` [Compound 609], the pIC50 in experiment [1] was more than 5.99; in experiment [2], more than 5.99; in experiment [3], less than 4.94; in experiment [4], less than 4.94; in experiment [5], 4.94 to 5.05; in experiment [6], more than 5.99. Also, the pIC50 in experiment [7] was more than 5.99; in experiment [8] it was less than 4.94.

Consider `COc1ccc(Nc2ccc(Nc3ncnc(Nc4cc(OC)c(OC)c(OC)c4)n3)cc2)cc1` [Compound 922], for which the pIC50 in experiment [1] is 5.30 to 6.07; in experiment [2] it was 5.30 to 6.07; in experiment [3] it was 5.13 to 5.30; in experiment [4], less than 5.02; in experiment [5] it was 5.30 to 6.07; in experiment [6], 5.30 to 6.07. For the same molecule, the pIC50 in experiment [7] is 5.30 to 6.07; in experiment [8], more than 6.07.

With `COc1cc(Nc2ncnc(Nc3ccc(C)cc3)n2)cc(OC)c1OC` [Compound 930], the pIC50 in experiment [1] is 5.18 to 5.96; in experiment [2] it was more than 5.96; in experiment [3] it was 5.02 to 5.18; in experiment [4], less than 4.91; in experiment [5], less than 4.91; in experiment [6], more than 5.96. Further, the pIC50 was more than 5.96 in experiment [7] and 5.18 to 5.96 in experiment [8].

As for `COc1ccc(Nc2ncnc(Nc3cc(OC)c(OC)c(OC)c3)n2)cc1O` [Compound 931], the pIC50 in experiment [1] was more than 6.00; in experiment [2], more than 6.00; in experiment [3], 5.22 to 6.00; in experiment [4], less than 4.95; in experiment [5], 4.95 to 5.06; in experiment [6] it was more than 6.00. The results for the pIC50 in experiment [7] and in experiment [8] were more than 6.00 and 5.22 to 6.00, respectively.

Regarding `COc1cc(Nc2ncnc(Nc3ccc(C)cc3F)n2)cc(OC)c1OC` [Compound 937], the pIC50 in experiment [1] was more than 5.98; in experiment [2], more than 5.98; in experiment [3], 5.21 to 5.98; in experiment [4] it was less than 4.93; in experiment [5], less than 4.93; in experiment [6], 5.21 to 5.98. In addition, the pIC50 was 5.21 to 5.98 in experiment [7] and 5.04 to 5.21 in experiment [8].

On to `COc1cc(Nc2ncnc(Nc3nc4ccccc4n3C)n2)cc(OC)c1OC` [Compound 938], for which the pIC50 in experiment [1], in experiment [2], in experiment [3], in experiment [4], in experiment [5] and in experiment [6] was less than 4.96 throughout. Besides, the pIC50 in experiment [7] is less than 4.96; in experiment [8] it was 5.07 to 5.23.

With `COc1ccc(Nc2ncnc(N(C/C=C/c3ccccc3)c3ccc(Cl)cc3)n2)cc1OC` [Compound 974], the pIC50 in experiment [1] is less than 5.02; in experiment [2], more than 6.07; in experiment [3], less than 5.02; in experiment [4], less than 5.02; in experiment [5] it was less than 5.02; in experiment [6], less than 5.02. Besides, the pIC50 in experiment [7] and in experiment [8] was less than 5.02 throughout.

Values taken from patent US7074789B2, “Kinase inhibitors” (Amgen Inc., priority 1999, dated 2006).
